According to patent publication US20120035260A1, “TELLURIUM-CONTAINING COMPOUNDS FOR AFFECTING FEMALE'S REPRODUCTIVE SYSTEM FOLLOWING CHEMOTHERAPY AND/OR RADIOTHERAPY” (BIOMAS LTD., priority 2009, published 2012):

Key:
ovarian follicles [1] = type: in vivo, female Balb/c mice; conditions: single 75, 100 or 150 mg/kg Cy or 4 weekly 75 mg/kg Cy, AS101 as co-treatment with Cy; for ratio of primary follicles relative to primordial follicles: FIG. 3A; for ratio of secondary follicles relative to primordial follicles: FIG. 3B
Procedure: (§1) 6 week old female Balb/c mice were divided randomly into 4 groups. The mice in the treatment groups received cyclophosphamide (Cy) with or without co-treatment with AS101. Control mice received injections of phosphate buffer saline (PBS) or AS101. Cy treatment consisted of a single intraperitoneal injection of 75, 100 or 150 mg/kg Cy, or 4 weekly injections of 75 mg/kg Cy. AS101 was injected at a dose of 10 mg/kg every other day starting 1 week prior to Cy administration until 1 week after the last administration of Cy. PBS was injected on the same days as described for AS101.
(§2) Both ovaries were removed 7 days after the last Cy administration treatment, and fixed in 4% paraformaldehyde in PBS. The ovaries were embedded in paraplast and serially sectioned to 5 μm slices, and stained with haematoxylin/eosin. Care was taken to ensure that both ovaries were removed from each mouse in their entirety for histological processing. Primordial, primary and secondary follicles were counted by two blinded examiners who were unaware of the treatments, using a light microscope (AxioImager Z1, Zeiss, Oberkochen, Germany) in bright-field mode using a X20 objective. To avoid counting the same follicle twice, only one section in each set of five consecutive sections was used. The relative distribution of different stages of early follicle growth was then calculated.
(§3) Follicles were classified as primordial follicles (PMF) if they contained an oocyte surrounded by a partial or complete layer of squamous pregranulosa cells without a theca layer. In this species, PMF are located almost exclusively in the ovarian cortex, and they are very small (about 15 μm diameter). The follicular count of each follicle type was then multiplied by 5 to reach a representative of total follicles [Meirow et al., Hum Reprod 1999; 14:1903-1907]. The data from follicular count is presented as the percentage of the count obtained from the PBS-treated control group.
The populations of primary follicles, secondary follicles and primordial follicles (PMF) were characterized following single injections of 75, 100 or 150 mg/kg Cy or 4 weekly injections of 75 mg/kg Cy.

[2] = cited from earlier work
[3] = cancer patients, AS101 in combination with chemotherapy; cited from earlier work
ovarian follicles [4] = type: in vivo
Procedure: Follicular apoptosis was visualized using the TUNEL staining of ovaries from additional group of mice sacrificed at 12, 24 and 48 hours after a single injection of 150 mg/kg Cy.

tumor = conditions: cited from earlier work
[5] = system: anti-Mullerian hormone (AMH); test: Plasma anti-Mullerian hormone (AMH) levels by ELISA; type: in vivo, female Balb/c mice; conditions: 4 weekly injections of 75 mg/kg Cy; control (PBS) group 10.7±2.1 ng/ml
Procedure: as §1
Anti-Mullerian hormone (AMH) levels in the plasma were measured by ELISA techniques according to the manufacturer instruction (DSL, Webster, Tex.).
Mice were administered PBS, AS101, Cy or Cy+AS101 for 4 weeks, as described hereinabove.

[6] = system: ovarian primordial follicles (PMF); test: Primordial follicle (PMF) counts in ovaries of cyclophosphamide-treated mice; type: in vivo, female Balb/c mice; conditions: AS101 10 mg/kg every other day where co-treated; for ovarian PMF count, % of that of the control (PBS) group: ovaries removed 7 days after Cy
Procedure: as §1, §2, §3
Student's T-test was performed to assess the differences between groups. Statistical significance was determined at p<0.05.

| SMILES | ratio of primary follicles relative to primordial follicles (ovarian follicles [1]) | ratio of secondary follicles relative to primordial follicles (ovarian follicles [1]) | survival of mice ([2]; mice treated with various cytotoxic drugs or radiation) | protection from hematopoietic damage ([2]; mice, lethal and sublethal doses of chemotherapeutic drugs, including cyclophosphamide) | severity of neutropenia, thrombocytopenia and alopecia that accompany chemotherapy [3] | TUNEL staining of ovary, follicle appearance (ovarian follicles [4]; co-therapy with a chemotherapeutic agent and AS101, FIG. 5C) | apoptotic (TUNEL) stain in primordial follicles (ovarian follicles [4]; ovary treated with AS101, FIG. 5B) | effect in combination with Cy (tumor; treatment of tumor-bearing mice) | anti-tumoral effect (tumor; variety of tumor models in mice and humans) | plasma AMH levels [5] | PMF count, % of that of the control group ([6]; 75 mg/kg Cy once a week for 4 weeks, ovaries removed 7 days after last Cy) | ovarian PMF count, % of that of the control (PBS) group ([6]; single i.p. injection of 75 mg/kg Cy) | ovarian PMF count, % of that of the control (PBS) group ([6]; single i.p. injection of 100 mg/kg Cy) | ovarian PMF count, % of that of the control (PBS) group ([6]; single i.p. injection of 150 mg/kg Cy) | apoptotic (TUNEL) staining in granulosa cells of growing follicles (ovarian follicles [4]; 24 hours after a single treatment with 150 mg/kg Cy, FIG. 5A) |
| --- | --- | --- | --- | --- | --- | --- | --- | --- | --- | --- | --- | --- | --- | --- | --- |
| Cl[TeH]1(Cl)(Cl)OCCO1 [AS101, ammonium trichloro(dioxyethylene-O,O′)tellurate] | prevented the Cy-induced increase in these ratios | prevented the Cy-induced increase in these ratios | increase the survival of mice | protect mice from hematopoietic damage | significant reduction in the severity | follicles destroyed by chemotherapy as well as healthy primordial follicles of ovary are observed | no apoptotic stain was detected | synergistic effect with Cy | exhibits an anti-tumoral effect |  |  |  |  |  |  |
| O=P1(N(CCCl)CCCl)NCCCO1 (centres unmarked) [Cy, cyclophosphamide] | increased the ratio | increased the ratio |  |  |  |  |  |  |  | 7.2 ± 1.9 ng/mL | 12.2%±9.5% | 52.1%±15.1% | 48%±12.6% | 38%±22.2% | extensive apoptotic staining |
